Test results: ChEMBL document CHEMBL1201862, “PubChem BioAssay data set” (2004)
Activity calls are given as the source filed them. Unless noted, the calls are words filed in the database; no cut-off is given here.

Experiments:
[1] = target: T1, Voltage-dependent T-type calcium channel subunit alpha-1H (Homo sapiens, UniProt O95180); assay: Inhibitors of T-Type Calcium Channels. [Related pubchem assays (depositor defined):AID449739, AID463087, AID489005, AID493041, AID504579, AID504584, AID504619, AID504628]; format: functional
[2] = inhibitors of intracellular T. cruzi replication, confirmation, NIH3T3 host cells, beta-gal luminescence (AID 2044); format: functional, cell-based;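 further: intracellular parasites grown in NIH/3T3 mouse fibroblasts as host cells; luminescent beta-galactosidase reporter signal from transgenic T. cruzi replicating inside host cells; inhibitors lower the luminescence signal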
[3] = cytotoxicity toward NIH3T3 fibroblasts, dose response, counter-screen, cell-based, ATP luminescence, mouse fibroblasts (AID 2010); format: functional;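 further: cells exposed to compound for about 90 hours before reading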
[4] = target: T1, Voltage-dependent T-type calcium channel subunit alpha-1H; format: functional
Insulin-degrading enzyme = target: T2, Insulin-degrading enzyme (Homo sapiens, UniProt P14735); assay: Dose Response: Fluorescence polarization-based cell-based high throughput dose response assay for inhibitors of insulin-degrading enzyme (IDE). [Related pubchem assays: 434962 (Primary screen (IDE inhibitors in singlicate)), 449730 (Counterscreen (Cytotoxicity in triplicate)), 435028 (Confirmation (IDE inhibitors in triplicate)), 434984 (Summary …; format: functional
T2 sequence (P14735 whole entry): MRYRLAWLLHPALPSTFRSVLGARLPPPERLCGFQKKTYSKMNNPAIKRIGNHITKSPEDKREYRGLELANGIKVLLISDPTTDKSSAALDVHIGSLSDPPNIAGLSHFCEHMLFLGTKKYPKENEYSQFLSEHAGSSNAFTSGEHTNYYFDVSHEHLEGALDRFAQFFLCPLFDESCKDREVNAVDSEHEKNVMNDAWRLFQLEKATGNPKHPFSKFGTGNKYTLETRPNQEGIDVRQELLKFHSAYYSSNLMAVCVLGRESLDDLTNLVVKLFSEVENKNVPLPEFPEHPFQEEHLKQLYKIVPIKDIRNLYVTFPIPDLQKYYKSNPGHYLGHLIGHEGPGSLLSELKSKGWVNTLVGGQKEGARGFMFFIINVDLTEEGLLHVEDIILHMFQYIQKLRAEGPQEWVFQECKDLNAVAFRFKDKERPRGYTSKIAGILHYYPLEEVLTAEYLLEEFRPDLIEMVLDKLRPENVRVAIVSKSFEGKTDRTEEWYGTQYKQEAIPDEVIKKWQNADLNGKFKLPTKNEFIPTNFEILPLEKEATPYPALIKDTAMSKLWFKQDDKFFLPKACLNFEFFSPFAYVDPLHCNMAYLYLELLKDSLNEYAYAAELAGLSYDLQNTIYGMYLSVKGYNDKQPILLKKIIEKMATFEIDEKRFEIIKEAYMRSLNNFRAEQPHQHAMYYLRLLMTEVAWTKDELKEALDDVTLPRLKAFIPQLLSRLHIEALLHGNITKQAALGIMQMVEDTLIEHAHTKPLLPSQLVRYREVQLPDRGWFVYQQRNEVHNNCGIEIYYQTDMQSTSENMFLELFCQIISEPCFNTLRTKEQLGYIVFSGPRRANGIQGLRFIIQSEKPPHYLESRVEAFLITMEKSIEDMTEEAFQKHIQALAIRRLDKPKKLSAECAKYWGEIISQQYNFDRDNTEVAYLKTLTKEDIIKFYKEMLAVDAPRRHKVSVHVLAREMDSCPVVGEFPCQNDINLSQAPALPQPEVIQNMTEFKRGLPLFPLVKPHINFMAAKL

Caspase-7 = Caspase-7 (Homo sapiens, UniProt P55210); assay: procaspase-7 activators, dose response, dual procaspase-3/-7 activator project, biochemical, absorbance, human (AID 504330)
[5] = target: T3, Corticotropin-releasing factor receptor 2/Corticotropin-releasing factor-binding protein (Homo sapiens, UniProt P24387+Q13324); assay: activators of CRF receptor 2 with binding protein – uHTS hits, confirmation (AID 602473); format: functional; details: read-out: EC50_Mean
T3 sequence (Q13324 whole entry): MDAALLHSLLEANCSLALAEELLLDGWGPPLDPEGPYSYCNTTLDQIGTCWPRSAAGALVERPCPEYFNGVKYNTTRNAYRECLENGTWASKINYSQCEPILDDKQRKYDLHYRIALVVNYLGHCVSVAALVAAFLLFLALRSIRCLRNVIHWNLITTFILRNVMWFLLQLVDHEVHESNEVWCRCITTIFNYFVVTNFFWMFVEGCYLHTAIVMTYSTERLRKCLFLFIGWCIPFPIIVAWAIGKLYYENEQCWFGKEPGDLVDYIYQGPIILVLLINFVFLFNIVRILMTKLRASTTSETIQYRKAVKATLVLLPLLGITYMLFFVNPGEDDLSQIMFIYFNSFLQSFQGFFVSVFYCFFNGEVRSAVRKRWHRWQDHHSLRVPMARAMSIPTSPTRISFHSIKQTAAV
T3 sequence (P24387 whole entry): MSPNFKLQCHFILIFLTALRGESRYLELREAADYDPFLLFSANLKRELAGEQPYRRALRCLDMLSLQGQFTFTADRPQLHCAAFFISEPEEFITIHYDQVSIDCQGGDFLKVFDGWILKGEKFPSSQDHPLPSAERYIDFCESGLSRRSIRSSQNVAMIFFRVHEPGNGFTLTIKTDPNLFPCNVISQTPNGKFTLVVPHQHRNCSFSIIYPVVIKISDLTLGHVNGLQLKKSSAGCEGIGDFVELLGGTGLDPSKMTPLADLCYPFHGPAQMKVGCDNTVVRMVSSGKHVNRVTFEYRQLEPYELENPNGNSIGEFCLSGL

Caspase-3 = target: T4, Caspase-3 (Homo sapiens, UniProt P42574); assay: procaspase-3 activation potency of dual hits, dose response, counter-screen for dual procaspase-3/7 activator project, biochemical, absorbance, PC-3 D3A mutant (AID 504328)
T4 sequence (P42574 whole entry): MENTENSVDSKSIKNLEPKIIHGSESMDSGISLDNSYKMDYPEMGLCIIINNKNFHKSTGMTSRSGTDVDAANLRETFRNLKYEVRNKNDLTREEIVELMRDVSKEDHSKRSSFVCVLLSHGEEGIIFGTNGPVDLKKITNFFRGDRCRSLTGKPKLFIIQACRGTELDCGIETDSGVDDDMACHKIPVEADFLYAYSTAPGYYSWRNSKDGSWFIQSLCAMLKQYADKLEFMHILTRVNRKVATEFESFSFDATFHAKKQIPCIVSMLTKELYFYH

[6] = Counterscreen for IDE inhibitors: Luminescence-based cell-based high throughput dose response assay to identify compounds that are cytotoxic to HEK cells. [Related pubchem assays: 434962 (Primary screen (IDE inhibitors in singlicate)), 449730 (Counterscreen (Cytotoxicity in triplicate)), 435028 (Confirmation (IDE inhibitors in triplicate)) …; format: functional; details: HEK293
SUMO E1/E2 = SUMO E1/E2 (Homo sapiens, UniProt P63279+Q9UBE0+Q9UBT2); assay: SAR analysis of SUMOylation using HTRF in an in-Vitro dose response assay. [Related pubchem assays (depositor defined):AID2006, AID2011, AID2018, AID2069, AID2658]; format: functional
[7] = target: T5, Voltage-gated N-type calcium channel alpha-1B subunit/Amyloid beta A4 precursor protein-binding family A member 1 (Homo sapiens, UniProt Q00975+Q02410); assay: disruptors of Mint-PDZ/N-type channel peptide interaction – biochemical, HTRF, set 2, SAR follow-up (AID 434980); format: functional
[8] = target: T5, Voltage-gated N-type calcium channel alpha-1B subunit/Amyloid beta A4 precursor protein-binding family A member 1; assay: disruptors of Mint-PDZ/N-type channel peptide interaction – biochemical, HTRF, SAR follow-up (AID 2489); format: functional
Collagenase 3 = Collagenase 3 (Homo sapiens, UniProt P45452); assay: MMP13 inhibition and MMP selectivity, late-stage follow-up, selectivity assay for MMP13 inhibitor project, biochemical, probe development, late stage results, panel member MMP-13 [IC50 Assay] (AID 2067)
Neutrophil collagenase = Neutrophil collagenase (Homo sapiens, UniProt P22894); assay: MMP13 inhibition and MMP selectivity, late-stage follow-up, selectivity assay for MMP13 inhibitor project, biochemical, probe development, late stage results, panel member MMP-8 [IC50 Assay] (AID 2067)
Phosphomannomutase 2 = Phosphomannomutase 2 (Homo sapiens, UniProt O15305); assay: Counter screen SAR assay for PMM2 inhibitors via a fluorescence intensity assay. [Related pubchem assays (depositor defined):AID1545, AID1574]
[9] = target: T6, Mannose-6-phosphate isomerase (Homo sapiens, UniProt P34949); assay: PMI enzyme inhibitors, confirmation, biochemical, fluorescence intensity (AID 1535)
T6 sequence (P34949 whole entry): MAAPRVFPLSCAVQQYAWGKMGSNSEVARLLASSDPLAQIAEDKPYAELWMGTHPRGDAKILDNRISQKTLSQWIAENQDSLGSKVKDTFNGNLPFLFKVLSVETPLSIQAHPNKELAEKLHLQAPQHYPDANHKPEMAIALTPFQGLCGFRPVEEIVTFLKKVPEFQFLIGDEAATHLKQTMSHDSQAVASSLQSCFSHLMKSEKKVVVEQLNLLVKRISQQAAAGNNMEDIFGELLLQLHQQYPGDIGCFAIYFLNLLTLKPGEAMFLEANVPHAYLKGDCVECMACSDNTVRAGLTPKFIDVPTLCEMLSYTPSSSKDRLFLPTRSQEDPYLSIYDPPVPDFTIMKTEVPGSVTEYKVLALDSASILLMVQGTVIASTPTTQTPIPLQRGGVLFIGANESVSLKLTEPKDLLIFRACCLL

[10] = target: Phosphoethanolamine/phosphocholine phosphatase (Homo sapiens, UniProt Q8TCT1); assay: SAR assay for compounds that inhibit PHOSPHO1. [Related pubchem assays (depositor defined):AID1545, AID1565, AID1574]
Phosphoethanolamine/phosphocholine phosphatase, sequence (Q8TCT1 whole entry): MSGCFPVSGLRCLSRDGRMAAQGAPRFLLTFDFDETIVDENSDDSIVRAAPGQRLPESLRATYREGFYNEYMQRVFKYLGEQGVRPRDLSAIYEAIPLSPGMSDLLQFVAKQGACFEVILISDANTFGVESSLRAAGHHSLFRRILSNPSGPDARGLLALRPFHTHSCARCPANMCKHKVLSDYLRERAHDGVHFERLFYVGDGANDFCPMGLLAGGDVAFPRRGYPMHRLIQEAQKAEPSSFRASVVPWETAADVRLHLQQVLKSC

T5 sequence (Q00975 whole entry): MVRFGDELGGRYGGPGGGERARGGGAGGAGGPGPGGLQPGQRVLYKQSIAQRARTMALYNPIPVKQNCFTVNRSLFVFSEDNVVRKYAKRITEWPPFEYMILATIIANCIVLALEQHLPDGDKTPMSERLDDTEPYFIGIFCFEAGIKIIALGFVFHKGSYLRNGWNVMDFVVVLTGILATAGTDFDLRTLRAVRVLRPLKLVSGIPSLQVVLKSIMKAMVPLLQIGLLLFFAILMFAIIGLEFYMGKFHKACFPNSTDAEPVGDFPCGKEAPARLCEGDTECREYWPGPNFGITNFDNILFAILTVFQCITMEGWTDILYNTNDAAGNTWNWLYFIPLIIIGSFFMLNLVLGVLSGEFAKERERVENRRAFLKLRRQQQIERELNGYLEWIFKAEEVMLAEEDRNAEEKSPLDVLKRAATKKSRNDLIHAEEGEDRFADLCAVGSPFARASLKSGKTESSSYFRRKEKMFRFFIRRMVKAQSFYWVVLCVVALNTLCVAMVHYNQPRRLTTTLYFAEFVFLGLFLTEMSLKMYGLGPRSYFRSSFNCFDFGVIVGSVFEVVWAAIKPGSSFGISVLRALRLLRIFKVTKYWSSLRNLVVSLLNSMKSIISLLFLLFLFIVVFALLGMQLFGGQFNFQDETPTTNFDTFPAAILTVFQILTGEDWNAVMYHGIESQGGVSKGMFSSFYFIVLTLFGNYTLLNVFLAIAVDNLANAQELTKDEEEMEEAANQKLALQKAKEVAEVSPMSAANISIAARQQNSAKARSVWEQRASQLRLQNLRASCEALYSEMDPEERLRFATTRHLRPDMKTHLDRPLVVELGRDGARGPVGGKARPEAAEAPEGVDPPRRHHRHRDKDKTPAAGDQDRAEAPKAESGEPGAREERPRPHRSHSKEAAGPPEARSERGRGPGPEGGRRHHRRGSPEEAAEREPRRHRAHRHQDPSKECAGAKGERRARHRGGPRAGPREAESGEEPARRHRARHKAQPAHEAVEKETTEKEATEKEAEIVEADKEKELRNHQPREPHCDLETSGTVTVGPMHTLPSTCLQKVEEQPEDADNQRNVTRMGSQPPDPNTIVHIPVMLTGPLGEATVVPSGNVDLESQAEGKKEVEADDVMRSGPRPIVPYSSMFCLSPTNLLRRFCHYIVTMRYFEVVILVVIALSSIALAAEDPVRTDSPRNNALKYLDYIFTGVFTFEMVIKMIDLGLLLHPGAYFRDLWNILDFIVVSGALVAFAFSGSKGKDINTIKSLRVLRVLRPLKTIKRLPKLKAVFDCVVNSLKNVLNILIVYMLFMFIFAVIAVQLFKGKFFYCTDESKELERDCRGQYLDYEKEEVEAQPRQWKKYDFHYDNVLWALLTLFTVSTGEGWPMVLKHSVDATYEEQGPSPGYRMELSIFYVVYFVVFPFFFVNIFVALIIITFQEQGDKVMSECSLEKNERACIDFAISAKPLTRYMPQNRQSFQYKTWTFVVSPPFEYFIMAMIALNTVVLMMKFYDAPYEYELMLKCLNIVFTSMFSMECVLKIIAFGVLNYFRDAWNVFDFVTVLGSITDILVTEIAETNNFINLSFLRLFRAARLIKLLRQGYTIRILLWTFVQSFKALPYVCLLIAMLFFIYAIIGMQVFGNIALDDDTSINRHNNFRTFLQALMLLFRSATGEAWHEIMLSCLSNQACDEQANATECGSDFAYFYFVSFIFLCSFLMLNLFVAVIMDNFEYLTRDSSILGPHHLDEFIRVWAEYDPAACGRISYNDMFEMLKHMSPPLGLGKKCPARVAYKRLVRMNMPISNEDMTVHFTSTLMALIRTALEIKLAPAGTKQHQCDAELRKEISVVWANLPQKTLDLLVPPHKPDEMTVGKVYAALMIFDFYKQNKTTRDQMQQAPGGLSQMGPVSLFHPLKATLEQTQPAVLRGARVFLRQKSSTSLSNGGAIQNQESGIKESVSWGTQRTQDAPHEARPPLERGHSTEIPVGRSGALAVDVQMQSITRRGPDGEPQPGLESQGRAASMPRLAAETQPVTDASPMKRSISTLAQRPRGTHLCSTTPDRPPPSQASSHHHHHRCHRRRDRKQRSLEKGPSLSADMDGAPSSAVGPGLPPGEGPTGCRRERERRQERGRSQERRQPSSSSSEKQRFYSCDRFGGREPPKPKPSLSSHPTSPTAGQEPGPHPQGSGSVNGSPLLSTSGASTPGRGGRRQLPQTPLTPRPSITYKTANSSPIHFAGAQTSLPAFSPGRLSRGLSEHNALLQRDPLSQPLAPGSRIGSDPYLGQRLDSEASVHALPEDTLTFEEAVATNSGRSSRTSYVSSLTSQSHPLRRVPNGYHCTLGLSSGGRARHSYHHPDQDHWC
T5 sequence (Q02410 whole entry): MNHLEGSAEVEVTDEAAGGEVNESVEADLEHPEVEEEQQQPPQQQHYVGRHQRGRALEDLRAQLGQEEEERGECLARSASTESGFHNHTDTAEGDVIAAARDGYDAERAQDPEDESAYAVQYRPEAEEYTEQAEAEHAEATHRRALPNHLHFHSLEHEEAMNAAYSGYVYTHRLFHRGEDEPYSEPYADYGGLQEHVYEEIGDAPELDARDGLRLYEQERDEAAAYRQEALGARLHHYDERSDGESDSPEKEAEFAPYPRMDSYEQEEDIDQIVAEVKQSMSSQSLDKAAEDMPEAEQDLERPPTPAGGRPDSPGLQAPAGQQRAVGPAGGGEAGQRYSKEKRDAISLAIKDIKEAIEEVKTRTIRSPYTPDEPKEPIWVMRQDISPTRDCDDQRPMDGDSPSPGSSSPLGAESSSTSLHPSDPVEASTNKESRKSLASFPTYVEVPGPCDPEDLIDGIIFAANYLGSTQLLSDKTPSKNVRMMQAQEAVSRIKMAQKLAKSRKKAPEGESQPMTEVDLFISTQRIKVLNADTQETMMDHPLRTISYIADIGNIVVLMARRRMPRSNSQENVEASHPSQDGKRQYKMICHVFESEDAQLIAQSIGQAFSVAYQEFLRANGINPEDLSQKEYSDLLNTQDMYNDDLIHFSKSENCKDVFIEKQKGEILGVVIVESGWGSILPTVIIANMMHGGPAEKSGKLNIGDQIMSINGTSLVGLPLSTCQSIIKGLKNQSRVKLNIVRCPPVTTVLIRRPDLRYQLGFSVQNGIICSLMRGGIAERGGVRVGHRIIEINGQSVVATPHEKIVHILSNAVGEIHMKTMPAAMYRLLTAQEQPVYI
SUMO E1/E2, sequence (Q9UBE0 whole entry): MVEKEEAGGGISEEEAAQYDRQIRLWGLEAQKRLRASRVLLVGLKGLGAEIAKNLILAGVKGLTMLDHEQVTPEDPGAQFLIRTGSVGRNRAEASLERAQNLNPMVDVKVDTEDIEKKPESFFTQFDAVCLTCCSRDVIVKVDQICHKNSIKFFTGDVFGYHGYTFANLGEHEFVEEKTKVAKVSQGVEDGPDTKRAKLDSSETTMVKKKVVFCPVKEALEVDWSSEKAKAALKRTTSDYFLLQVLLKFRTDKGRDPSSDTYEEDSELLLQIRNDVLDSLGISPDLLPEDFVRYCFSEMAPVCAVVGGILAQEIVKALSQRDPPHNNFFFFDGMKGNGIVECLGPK
SUMO E1/E2, sequence (Q9UBT2 whole entry): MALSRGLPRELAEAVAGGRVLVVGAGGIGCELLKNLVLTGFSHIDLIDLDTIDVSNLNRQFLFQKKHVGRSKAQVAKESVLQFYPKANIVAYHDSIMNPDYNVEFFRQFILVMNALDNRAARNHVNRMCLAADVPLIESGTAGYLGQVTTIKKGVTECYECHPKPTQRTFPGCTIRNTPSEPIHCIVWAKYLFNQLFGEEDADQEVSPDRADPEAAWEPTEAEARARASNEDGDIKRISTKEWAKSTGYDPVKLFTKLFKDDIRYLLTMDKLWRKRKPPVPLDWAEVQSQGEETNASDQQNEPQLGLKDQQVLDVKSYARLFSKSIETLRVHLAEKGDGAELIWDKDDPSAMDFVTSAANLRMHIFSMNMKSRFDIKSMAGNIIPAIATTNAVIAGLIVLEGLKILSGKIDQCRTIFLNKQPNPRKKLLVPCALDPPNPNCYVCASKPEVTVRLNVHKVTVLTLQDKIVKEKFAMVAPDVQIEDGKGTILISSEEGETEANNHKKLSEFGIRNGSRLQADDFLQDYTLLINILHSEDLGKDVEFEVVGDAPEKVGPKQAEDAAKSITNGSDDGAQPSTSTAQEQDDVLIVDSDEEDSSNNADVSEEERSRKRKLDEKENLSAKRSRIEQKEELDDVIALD
SUMO E1/E2, sequence (P63279 whole entry): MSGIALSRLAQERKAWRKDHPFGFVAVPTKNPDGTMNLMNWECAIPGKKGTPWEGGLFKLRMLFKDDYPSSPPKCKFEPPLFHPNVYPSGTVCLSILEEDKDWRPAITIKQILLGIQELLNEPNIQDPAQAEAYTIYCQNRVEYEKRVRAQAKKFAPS
Phosphomannomutase 2, sequence (O15305 whole entry): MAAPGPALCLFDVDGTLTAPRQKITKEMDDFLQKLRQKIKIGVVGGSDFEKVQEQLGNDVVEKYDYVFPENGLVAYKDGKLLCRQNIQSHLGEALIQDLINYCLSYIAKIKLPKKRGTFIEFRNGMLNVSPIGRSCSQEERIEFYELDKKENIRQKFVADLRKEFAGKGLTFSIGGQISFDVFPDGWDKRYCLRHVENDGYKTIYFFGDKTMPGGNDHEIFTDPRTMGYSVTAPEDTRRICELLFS

CCc1ccc(-c2nc(CN3CCCC(C(=O)NCCc4ccc(OC)c(OC)c4)C3)c(C)o2)cc1 (configuration not stated)
EC50 [1]: 3.95 µM (active)
EC50 [2]: 0.161 µM (active)
EC50 [3]: > 60 µM (not active)
EC50 [4]: 5.02 µM (active)

O=C(C1=NN(c2ccccc2)C2C(=O)N(c3ccccc3)C(=O)C12)c1ccccc1 (configuration not stated)
IC50 (Insulin-degrading enzyme): 25.5 µM (not active)
EC50 (Caspase-7): > 85.3 µM (inactive)
EC50 [5]: 14.6 µM (active)
EC50 (Caspase-3): > 85.3 µM (inactive)
IC50 [6]: > 55.7 µM (not active)

O=C(COC(=O)c1cc(-c2ccco2)nc2ccccc12)NC(=O)c1ccccc1
IC50 (SUMO E1/E2): 2.18 µM (active)
IC50 [7]: 8.83 µM (active)
IC50 [8]: 21.9 µM (active)

O=c1[nH]c(SCc2ccc(OC(F)(F)F)cc2)nc2c1CCC2
IC50 (Collagenase 3): > 39.8 µM (active)
IC50 (Neutrophil collagenase): > 39.8 µM (inactive)

O=c1c2ccc(F)cc2sn1-c1cc(Cl)ccc1Cl
IC50 (Phosphomannomutase 2): 3.37 µM (active)
IC50 [9]: 44.9 µM (active)
IC50 [10]: 0.384 µM (active)
